{
  "source": "patent US20060293264A1",
  "about": "“STAT3 decoy oligonucleotides and uses therefor” (priority 2004, published 2006)",
  "key": {"STAT3": {"target": "T1, STAT3 (Homo sapiens, UniProt P40763)", "T1 construct": "Whole cell extracts were prepared and EMSAs performed on 4% native polyacrylamide gels; endogenous in cells; host or cells: whole cell extracts", "T1 sequence (P40763 2-770 limits assumed)": "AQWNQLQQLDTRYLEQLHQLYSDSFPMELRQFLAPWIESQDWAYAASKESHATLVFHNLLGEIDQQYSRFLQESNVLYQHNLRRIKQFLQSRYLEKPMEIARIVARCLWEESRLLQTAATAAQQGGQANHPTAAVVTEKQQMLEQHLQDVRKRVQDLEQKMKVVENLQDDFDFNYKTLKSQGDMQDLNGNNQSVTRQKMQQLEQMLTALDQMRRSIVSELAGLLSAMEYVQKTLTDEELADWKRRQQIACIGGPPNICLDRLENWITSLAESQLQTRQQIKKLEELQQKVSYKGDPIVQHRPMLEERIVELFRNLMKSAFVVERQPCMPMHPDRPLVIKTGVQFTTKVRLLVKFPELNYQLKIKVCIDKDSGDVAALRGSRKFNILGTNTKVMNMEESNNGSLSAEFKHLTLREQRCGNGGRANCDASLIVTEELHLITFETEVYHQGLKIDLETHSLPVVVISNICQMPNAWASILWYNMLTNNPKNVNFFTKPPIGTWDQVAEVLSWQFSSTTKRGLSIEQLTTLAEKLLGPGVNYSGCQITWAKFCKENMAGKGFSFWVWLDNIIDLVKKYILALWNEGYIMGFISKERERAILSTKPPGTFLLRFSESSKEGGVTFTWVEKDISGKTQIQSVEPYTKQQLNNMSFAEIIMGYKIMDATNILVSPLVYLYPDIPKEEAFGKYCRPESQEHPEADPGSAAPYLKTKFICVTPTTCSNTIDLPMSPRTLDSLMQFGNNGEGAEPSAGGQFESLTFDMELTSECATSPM", "experiment": "STAT3 activation by EMSA in harvested xenografts", "format": "in vivo", "conditions": "xenografts harvested 4 hrs after last treatment; p=0.02", "method": "Electrophoretic Mobility Shift Assay (EMSA). Whole cell extracts were prepared and EMSAs performed on 4% native polyacrylamide gels as described (Xi, S., et al. J Biol Chem, 278: 31574-31583, 2003 and Wong, P., etal. Mol Cell Biol, 14. 914-922, 1994). STAT3 activation was evaluated by using binding reactions with 20 μg of extracted protein, and radiolabeled high-affinity serum inducible element (hSIE) duplex oligonucleotide (Wagner et al., EMBO J. 9(13):4477-4484 (1990)). Quantification of the STAT3 signal was performed by scanning the SIF-A band using a Molecular Dynamics Personal Densitometer SI and IMAGEQUANT software. […] For supershift experiments, extracts were preincubated with STAT3 polyclonal antibody (C-20, Santa Cruz Biotechnology). Gel shift bands were quantified by densitometry and the Molecular Analyst software (AlphaDigidoc 1000, Alpha-Innotech) with normalization of each band to the positive control lysate run on that gel as described previously for STAT3 activation determinations (Grandis, J. R. et al. Proc Natl Acad Sci USA, 97: 4227-4232., 2000).\nIn vivo tumor xenograft studies. Female athymic nude mice nu/nu (4-6 weeks old; 20±2 g; Harlan-Sprague-Dawley) were implanted with 1×10^6 1483 cells into the right and left flank with a 26-gauge needle/1 ml tuberculin syringe, resulting in two tumors per mouse. […]"}, "STAT1": {"target": "T2, STAT1 (Homo sapiens, UniProt P42224)", "T2 construct": "Nuclear protein extracts of PCI-15B cells, prepared according to standard methods, were used for the EMSA; endogenous in cells; host or cells: PCI-15B cells (nuclear extract)", "T2 sequence (P42224 2-750 limits assumed)": "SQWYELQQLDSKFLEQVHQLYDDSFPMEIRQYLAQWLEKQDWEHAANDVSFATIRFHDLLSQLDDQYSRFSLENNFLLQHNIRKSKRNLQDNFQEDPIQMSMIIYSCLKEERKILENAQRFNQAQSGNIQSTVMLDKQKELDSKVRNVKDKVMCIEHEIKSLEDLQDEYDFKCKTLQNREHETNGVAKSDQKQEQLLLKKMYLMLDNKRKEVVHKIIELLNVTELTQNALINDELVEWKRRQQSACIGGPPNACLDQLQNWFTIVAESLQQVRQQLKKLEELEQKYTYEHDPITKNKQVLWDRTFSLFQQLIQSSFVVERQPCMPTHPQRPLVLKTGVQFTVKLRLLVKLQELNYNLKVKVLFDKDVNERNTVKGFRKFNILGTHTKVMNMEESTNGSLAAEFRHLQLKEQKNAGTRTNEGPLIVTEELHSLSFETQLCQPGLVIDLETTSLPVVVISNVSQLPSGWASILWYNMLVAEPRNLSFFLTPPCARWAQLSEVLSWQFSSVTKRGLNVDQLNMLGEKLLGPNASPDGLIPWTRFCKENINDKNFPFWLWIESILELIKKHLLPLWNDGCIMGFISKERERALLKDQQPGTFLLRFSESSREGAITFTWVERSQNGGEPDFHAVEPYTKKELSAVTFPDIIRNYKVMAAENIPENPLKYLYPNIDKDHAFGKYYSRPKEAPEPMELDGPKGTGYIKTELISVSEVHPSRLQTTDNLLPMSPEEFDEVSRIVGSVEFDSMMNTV", "experiment": "EMSA of STAT1 binding to the STAT3 decoy, PCI-15B nuclear extracts", "conditions": "supershift", "method": "FIG. 10 depicts binding of STAT 1 to the STAT3 decoy in an electrophoretic mobility shift assay (EMSA). Nuclear protein extracts of PCI-15B cells, prepared according to standard methods, were used for the EMSA. The specificity of STAT1 or STAT3 binding to the STAT3 decoy was determined by supershifting with STAT1- or STAT3-specific antibodies, or both. The experiment has been repeated more than 3 times."}},
  "data": [
    {"substance": "STAT3 decoy (sense CATTTCCCGTAAATC; antisense GATTTACGGGAAATG; phosphorothioate modified, further chemistry not given here; listed as Homo sapiens)", "values": [
      {"measurement": "STAT3 activation levels compared with mutant control decoy", "setting": "STAT3", "result": "decreased"},
      {"measurement": "binding to STAT1", "setting": "STAT1", "result": "able to bind"}
    ]}
  ]
}
